In PubChem BioAssay (NCI):
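Values below derive from 48-hour exposures of cells grown in 96-well plates, with endpoints linearly interpolated between the two concentrations bracketing the appropriate inhibition level. GI50 = concentration required for 50% inhibition of growth. TGI marks complete inhibition of growth.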

Columns and labels:
Test in all cases: growth of human tumour cells (NCI), 48 h
PC-3 prostate = test system: PC-3 prostate
OVCAR-8 ovarian = test system: OVCAR-8 ovarian
OVCAR-5 ovarian = test system: OVCAR-5 ovarian
SR leukemia = test system: SR leukemia
NCI-H226 lung = test system: NCI-H226 lung
UACC-257 melanoma = test system: UACC-257 melanoma
SN12C renal = test system: SN12C renal
T-47D breast = test system: T-47D breast
MALME-3M melanoma = test system: MALME-3M melanoma
SK-MEL-28 melanoma = test system: SK-MEL-28 melanoma

SMILES | GI50 (PC-3 prostate) [µM] | TGI (PC-3 prostate) [µM] | GI50 (OVCAR-8 ovarian) [µM] | TGI (OVCAR-8 ovarian) [µM] | GI50 (OVCAR-5 ovarian) [µM] | TGI (OVCAR-5 ovarian) [µM] | GI50 (SR leukemia) [µM] | TGI (SR leukemia) [µM] | GI50 (NCI-H226 lung) [µM] | TGI (NCI-H226 lung) [µM] | GI50 (UACC-257 melanoma) [µM] | TGI (UACC-257 melanoma) [µM] | GI50 (SN12C renal) [µM] | TGI (SN12C renal) [µM] | GI50 (T-47D breast) [µM] | TGI (T-47D breast) [µM] | GI50 (MALME-3M melanoma) [µM] | TGI (MALME-3M melanoma) [µM] | GI50 (SK-MEL-28 melanoma) [µM] | TGI (SK-MEL-28 melanoma) [µM]
Cn1c(=O)c(Oc2ccccc2F)cc2cnc(NC3CCOCC3)nc21 | > 25 | > 25 | > 25 | > 25 | > 25 | > 25 | > 25 | > 25 | > 25 | > 25 | > 25 | > 25 | > 25 | > 25 | > 25 | > 25 | > 25 | > 25 | > 25 | > 25
CC[C@@]1(O)C(=O)NCc2c1cc1n(c2=O)Cc2cc3c(N)cccc3nc2-1 | 9.99 | > 55.4 | 2.39 | > 78.7 | 11.8 | > 94.5 | 0.672 | 5.35 | 2.03 | > 38.9 | 6.15 | > 79.5 | 0.529 | 35.2 | 0.623 | > 19.9 | 1.1 | – | 8.8 | > 77.7
Clc1ccc2[nH]cc(-c3nc(-c4c[nH]c5ncccc45)cs3)c2c1 | 3.5 | 28 | 3.87 | 20.8 | 5.63 | 59.5 | – | – | 3.69 | 22.2 | 2.56 | 6.78 | 4.78 | 20.9 | 4.88 | 33.7 | 5.17 | 19 | 6.43 | 20.1
COc1cc(/C=C\[N+](=O)[O-])ccc1OCc1ccccc1 | 3.5 | 25.4 | 2.91 | 9.56 | 3.29 | 13.7 | 1.46 | 5.27 | 2.26 | 5.47 | 2.08 | 5.83 | 2.77 | 8.42 | 2.25 | 7.44 | 2.54 | 9.38 | 2.08 | 4.5
CCCCNN | – | > 100 | – | > 100 | – | > 100 | – | > 100 | – | > 100 | – | > 100 | – | > 100 | – | > 100 | – | > 100 | – | > 100
OCCSCc1ccccc1 | – | > 100 | – | > 100 | – | > 100 | – | > 100 | – | > 100 | – | > 100 | – | > 100 | – | > 100 | – | > 100 | – | > 100
CN(C)N1C(=O)c2ccccc2NC1c1ccccc1 (configuration not stated) | – | > 100 | – | > 100 | – | > 100 | – | – | – | > 100 | – | > 100 | – | > 100 | – | > 100 | – | > 100 | – | > 100
O=C(Nc1ccc(F)cc1)c1c(NC(=O)C(F)(F)F)sc2c1CCCCC2 | 1.59 | 7.87 | 2.8 | > 100 | 2.89 | 13.1 | 1.29 | > 100 | 1.76 | 5.46 | 2.21 | 7.17 | 1.94 | 8.67 | 1.62 | 5.61 | 1.81 | 5.72 | 2.11 | 13.9
Cc1sc(C)c(Cc2c(C)sc(C)c2CCl)c1CCl | – | – | > 100 | > 100 | > 100 | > 100 | > 100 | > 100 | > 100 | > 100 | > 100 | > 100 | > 100 | > 100 | > 100 | > 100 | 81.4 | > 100 | > 100 | > 100
Nc1ccc(S(=O)(=O)C23CC4CC(CC(C4)C2)C3)cc1 | – | > 100 | – | > 100 | – | > 100 | – | > 100 | – | > 100 | – | > 100 | – | > 100 | – | > 100 | – | > 100 | – | > 100
CC(C)c1ccc(/C(C(=O)O)=C(\O)C(=O)O)cc1 | – | > 100 | – | > 100 | – | > 100 | – | > 100 | – | > 100 | – | > 100 | – | > 100 | – | > 100 | – | > 100 | – | > 100
NC(=O)c1cc(Br)cc(C2CCCCC2)c1O | 12.8 | 26.4 | 14.4 | 30 | 13.9 | 27.8 | 14.2 | 34.6 | 13.6 | 31 | 16.3 | 30.1 | 12.2 | 25.1 | 11.5 | 27 | 19.6 | 35.9 | 14 | 27.3
Cc1cc(C)c(C[N+](C)(C)C)c(C)c1C | 0.351 | > 67.2 | 0.328 | > 41.6 | 0.48 | > 62.1 | 0.821 | > 41.1 | 0.565 | 11.9 | 0.465 | 6.69 | 0.212 | 23.4 | 0.292 | 9.92 | 0.594 | 32.2 | 0.365 | 23.5
Nc1nnc2cc(Cl)ccc2n1 | 24.4 | > 100 | > 100 | > 100 | > 100 | > 100 | > 100 | > 100 | > 100 | > 100 | > 100 | > 100 | 16 | > 100 | > 100 | > 100 | > 100 | > 100 | > 100 | > 100
N#Cc1cnc2cc(OC[C@@H](O)CO)c(NC(=O)CC3CSSC3)cc2c1Nc1ccc(OCc2cccc(F)c2)c(Cl)c1 | 0.0888 | 0.198 | 0.651 | 1.85 | 0.797 | 1.59 | 0.0408 | 0.275 | – | – | 0.195 | 0.829 | 0.144 | 0.49 | 0.646 | 1.59 | 0.215 | 0.938 | 0.0632 | 0.136
OCC1OC(n2ccc3c(NO)ncnc32)C(O)C1O (configuration not stated) | 0.239 | 1.14 | 0.184 | 1.94 | 0.247 | 6.33 | – | – | 0.251 | – | 0.232 | 0.866 | 0.212 | 1.61 | 0.169 | 1.96 | 0.117 | 0.451 | 0.231 | 0.873
N#Cc1c(-c2ccccc2)cc(-c2ccc(Nc3nc(Nc4ccc(Cl)cc4)nc(Nc4ccc(Cl)cc4)n3)cc2)nc1N | 1.89 | 6.76 | 3.94 | > 100 | 4.13 | 17.6 | – | – | 1.73 | 3.75 | 1.92 | 4.47 | 3.37 | > 100 | 1.6 | 4.37 | 1.69 | 3.62 | 1.22 | 2.8
C=C1C(=O)O[C@H]2[C@H]1CC/C(COC(=O)NCc1ccc(Cn3c(=O)sn(CCCCl)c3=O)cc1)=C\CC[C@@]1(C)O[C@@H]21 | 2.13 | 5.05 | 2.32 | 5.42 | 2.64 | 5.95 | – | – | 16.6 | 42.6 | 1.61 | 3.41 | 1.36 | 3.15 | 1.97 | 5.58 | 1.34 | 3.05 | 1.69 | 3.16
Cn1ncc2c(N)nc(N3CCCCC3)nc21 | 33.5 | > 100 | 25.9 | 76.1 | 38.5 | > 100 | – | – | 22.1 | 48.3 | 54.4 | > 100 | 28.5 | 75.2 | 3.75 | 34.6 | 20.8 | 67.9 | 24.1 | > 100
COc1cc2c3c(n(CCCNCCN)c(=O)c2cc1OC)-c1cc2c(cc1C3=O)OCO2 | 2.13 | 14.9 | 0.259 | 6.73 | 1.39 | 10.5 | – | – | 1.1 | 2.55 | 1.95 | 14.1 | 0.351 | 4.35 | > 100 | > 100 | 0.654 | 7.74 | 0.822 | 2.95
CC1=C[C@H]2c3c(c(O)c(O)c4oc5ccccc5c(=O)c34)[C@H](c3cc(O)c(O)c4oc5ccccc5c(=O)c34)[C@H]2C(C)(C)C1 | 1.1 | 16.5 | 0.93 | 46.9 | 3.18 | 14.7 | 0.384 | 34.4 | – | – | 2.65 | 18.1 | 1.36 | 6.71 | 0.764 | 19.3 | 2.3 | 11.1 | 1.86 | 13.3
NNc1cccc(/C=C/c2ccccc2)cc1=O | 7.87 | > 100 | 3.74 | > 100 | 45.9 | > 100 | 3.85 | > 100 | 19.9 | > 100 | 26.7 | > 100 | 15.2 | > 100 | 5.36 | 92.5 | – | – | 35.9 | > 100
